Reference: PubChem BioAssay AID488833 (Sanford-Burnham Center for Chemical Genomics, 2010)
Activity calls are given as the source filed them.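 The calls were made as follows: active = EC50 below a set limit; inactive = the rest.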

Target: Kappa-type opioid receptor (Homo sapiens) (UniProt P41145)
Test: KOR agonist analogs, arrestin-GFP redistribution, SAR follow-up, imaging, image-based, set 3 (AID 488833)
Conditions: U2OS KOR beta-arrestin-GFP translocation imaging

Chain of Kappa-type opioid receptor (Homo sapiens) (P41145 whole entry, looked up): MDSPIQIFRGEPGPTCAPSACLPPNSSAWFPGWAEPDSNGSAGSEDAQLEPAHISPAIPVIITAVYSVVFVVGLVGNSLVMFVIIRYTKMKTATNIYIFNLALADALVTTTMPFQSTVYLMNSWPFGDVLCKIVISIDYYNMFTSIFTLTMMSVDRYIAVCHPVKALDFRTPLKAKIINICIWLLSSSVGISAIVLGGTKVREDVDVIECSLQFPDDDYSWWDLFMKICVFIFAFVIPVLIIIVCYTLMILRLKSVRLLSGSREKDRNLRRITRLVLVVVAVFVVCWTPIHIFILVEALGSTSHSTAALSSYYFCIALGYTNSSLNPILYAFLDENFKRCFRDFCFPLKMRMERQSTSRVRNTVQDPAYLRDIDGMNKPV

EC50: inactive
Compound: Cc1ccccc1CSc1nnc(-c2ccccn2)n1Cc1cccs1
